The source made the active and inactive calls.
Tests used:
[1] = target: T1, Bcl-2-related protein A1 (Mus musculus, UniProt Q07440); test: small-molecule antagonists of Bfl-1/BH3 interaction – biochemical, TR-FRET, mouse Bfl-1, confirmation (AID 621);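 also: TR-FRET binding of GST-Bfl-1 to FITC-labelled Bid peptide via terbium antibody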
T1 sequence (Q07440 whole entry): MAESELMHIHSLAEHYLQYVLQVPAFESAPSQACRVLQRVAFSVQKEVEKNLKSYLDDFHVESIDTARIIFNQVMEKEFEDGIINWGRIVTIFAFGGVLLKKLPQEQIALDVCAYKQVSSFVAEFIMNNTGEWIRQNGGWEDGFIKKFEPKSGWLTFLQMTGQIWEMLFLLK

[2] = target: T1, Bcl-2-related protein A1; test: Bfl-1 binding inhibitors, SAR follow-up, biochemical, fluorescence polarization (AID 1070)
[3] = target: T2, E3 ubiquitin-protein ligase XIAP (Homo sapiens, UniProt P98170); test: Counter Screen using XIAP-Bir3 for Chemical Antagonists of Bir1/2 domains of IAP-family anti-apoptotic proteins. [Related pubchem assays (depositor defined):AID1018, AID1449, AID1514, AID1638, AID1749, AID1750, AID488957, AID488963]
T2 sequence (P98170 whole entry): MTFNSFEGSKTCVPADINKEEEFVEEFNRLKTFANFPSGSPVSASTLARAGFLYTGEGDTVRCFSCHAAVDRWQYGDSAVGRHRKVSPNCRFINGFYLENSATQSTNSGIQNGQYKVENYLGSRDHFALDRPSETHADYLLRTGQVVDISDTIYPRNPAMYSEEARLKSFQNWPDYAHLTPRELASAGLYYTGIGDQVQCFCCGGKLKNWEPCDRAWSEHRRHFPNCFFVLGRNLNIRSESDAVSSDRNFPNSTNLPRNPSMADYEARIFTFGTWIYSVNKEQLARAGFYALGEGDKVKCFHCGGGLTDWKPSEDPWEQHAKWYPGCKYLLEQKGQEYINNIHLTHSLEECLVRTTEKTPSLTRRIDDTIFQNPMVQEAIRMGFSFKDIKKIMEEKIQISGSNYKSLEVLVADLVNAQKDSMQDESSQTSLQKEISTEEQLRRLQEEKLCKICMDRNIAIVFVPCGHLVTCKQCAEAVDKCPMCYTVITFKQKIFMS

[4] = target: T2, E3 ubiquitin-protein ligase XIAP; test: small molecules displacing peptide from XIAP – biochemical, IAP family, fluorescence polarization (AID 1018); format: functional
[5] = target: Glyceraldehyde-3-phosphate dehydrogenase (Homo sapiens, UniProt P04406)
Glyceraldehyde-3-phosphate dehydrogenase, sequence (P04406 whole entry): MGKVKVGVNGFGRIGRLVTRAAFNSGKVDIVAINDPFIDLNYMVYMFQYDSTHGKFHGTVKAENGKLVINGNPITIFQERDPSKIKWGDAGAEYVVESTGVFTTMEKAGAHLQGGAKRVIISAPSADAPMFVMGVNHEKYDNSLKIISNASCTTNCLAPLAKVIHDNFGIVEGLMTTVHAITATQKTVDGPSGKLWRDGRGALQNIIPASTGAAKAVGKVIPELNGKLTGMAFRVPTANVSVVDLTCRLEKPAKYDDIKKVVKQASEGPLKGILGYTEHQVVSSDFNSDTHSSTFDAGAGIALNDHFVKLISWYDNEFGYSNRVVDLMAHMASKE

[6] = target: Peroxisome proliferator-activated receptor gamma/Nuclear receptor coactivator 2 (Homo sapiens, UniProt P37231); format: functional;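 also: agonist potency for raising coactivator recruitment to the receptor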
[7] = target: Peroxisome proliferator-activated receptor gamma/Nuclear receptor coactivator 3 (Homo sapiens, UniProt P37231); format: functional;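 also: agonist potency for raising coactivator recruitment to the receptor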
[8] = target: Peroxisome proliferator-activated receptor gamma/Nuclear receptor coactivator 1 (Homo sapiens, UniProt P37231); format: functional;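 also: agonist potency as compounds enhance coactivator SRC-1 recruitment to PPARgamma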
Peroxisome proliferator-activated receptor gamma/Nuclear receptor coactivator 1, sequence (P37231 whole entry): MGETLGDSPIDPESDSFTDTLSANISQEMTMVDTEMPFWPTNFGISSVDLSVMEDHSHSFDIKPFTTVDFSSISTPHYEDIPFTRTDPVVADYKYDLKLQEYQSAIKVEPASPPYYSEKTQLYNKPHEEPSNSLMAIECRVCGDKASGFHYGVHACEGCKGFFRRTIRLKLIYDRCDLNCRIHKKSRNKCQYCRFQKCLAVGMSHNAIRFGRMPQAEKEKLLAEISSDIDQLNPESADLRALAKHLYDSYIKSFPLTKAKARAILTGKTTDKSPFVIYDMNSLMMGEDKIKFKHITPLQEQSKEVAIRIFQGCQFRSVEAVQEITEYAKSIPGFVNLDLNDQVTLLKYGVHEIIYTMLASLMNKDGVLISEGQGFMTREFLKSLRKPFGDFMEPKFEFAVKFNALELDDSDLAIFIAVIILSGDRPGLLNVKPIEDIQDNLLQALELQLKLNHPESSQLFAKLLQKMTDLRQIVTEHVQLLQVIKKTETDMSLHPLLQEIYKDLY
Peroxisome proliferator-activated receptor gamma/Nuclear receptor coactivator 1, sequence (Q15788 whole entry, further chain): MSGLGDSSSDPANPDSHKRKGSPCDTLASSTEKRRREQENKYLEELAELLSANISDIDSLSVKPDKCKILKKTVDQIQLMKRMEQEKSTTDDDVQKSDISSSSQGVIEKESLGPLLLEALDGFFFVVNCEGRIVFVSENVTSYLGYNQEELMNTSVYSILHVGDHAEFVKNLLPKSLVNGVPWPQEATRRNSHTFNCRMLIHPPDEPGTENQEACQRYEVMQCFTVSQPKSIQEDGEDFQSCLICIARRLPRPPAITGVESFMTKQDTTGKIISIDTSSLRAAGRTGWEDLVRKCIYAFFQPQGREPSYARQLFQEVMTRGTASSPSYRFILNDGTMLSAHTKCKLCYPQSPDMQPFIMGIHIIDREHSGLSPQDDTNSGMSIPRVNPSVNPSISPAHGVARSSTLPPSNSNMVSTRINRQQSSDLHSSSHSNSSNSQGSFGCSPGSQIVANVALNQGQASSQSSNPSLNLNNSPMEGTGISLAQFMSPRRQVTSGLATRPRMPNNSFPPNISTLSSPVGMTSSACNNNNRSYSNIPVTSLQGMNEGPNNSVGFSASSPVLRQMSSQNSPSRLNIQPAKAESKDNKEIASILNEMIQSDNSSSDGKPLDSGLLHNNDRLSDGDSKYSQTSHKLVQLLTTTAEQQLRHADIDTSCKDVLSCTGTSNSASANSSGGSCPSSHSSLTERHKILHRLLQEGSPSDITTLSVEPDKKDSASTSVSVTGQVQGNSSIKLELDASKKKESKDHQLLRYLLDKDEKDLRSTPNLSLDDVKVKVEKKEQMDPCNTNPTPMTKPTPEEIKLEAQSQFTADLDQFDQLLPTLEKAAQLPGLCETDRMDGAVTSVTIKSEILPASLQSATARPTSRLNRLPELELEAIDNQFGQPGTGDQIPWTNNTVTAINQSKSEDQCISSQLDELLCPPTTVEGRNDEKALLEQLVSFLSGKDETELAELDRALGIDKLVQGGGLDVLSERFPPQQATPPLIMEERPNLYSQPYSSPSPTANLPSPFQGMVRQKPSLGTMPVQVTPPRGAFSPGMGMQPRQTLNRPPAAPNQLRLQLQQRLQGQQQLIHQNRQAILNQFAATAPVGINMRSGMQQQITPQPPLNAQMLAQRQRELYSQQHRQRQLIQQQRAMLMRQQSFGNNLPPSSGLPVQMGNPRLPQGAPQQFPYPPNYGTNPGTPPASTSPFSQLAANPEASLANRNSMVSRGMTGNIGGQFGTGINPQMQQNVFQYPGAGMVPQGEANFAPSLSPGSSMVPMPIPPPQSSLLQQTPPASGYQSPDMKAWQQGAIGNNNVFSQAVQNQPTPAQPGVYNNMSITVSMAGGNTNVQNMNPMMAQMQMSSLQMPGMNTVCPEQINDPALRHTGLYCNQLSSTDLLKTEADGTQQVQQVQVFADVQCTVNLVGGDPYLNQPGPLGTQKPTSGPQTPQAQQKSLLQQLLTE

[9] = target: T3, Protein Tat (Human immunodeficiency virus type 1 group M subtype B (isolate HXB2)(HIV-1), UniProt P04608); format: functional;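 also: tat binding to TAR RNA read out by fluorescence polarization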
T3 sequence (P04608 whole entry): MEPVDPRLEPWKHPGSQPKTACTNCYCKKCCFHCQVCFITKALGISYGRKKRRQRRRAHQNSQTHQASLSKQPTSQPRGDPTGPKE

[10] = target: T4, Zinc finger protein mex-5 (Caenorhabditis elegans, UniProt Q9XUB2); test: potency of MEX-5 RNA-binding blockers – biochemical, C. elegans, fluorescence polarization, dose response (AID 1960)
T4 sequence (Q9XUB2 whole entry): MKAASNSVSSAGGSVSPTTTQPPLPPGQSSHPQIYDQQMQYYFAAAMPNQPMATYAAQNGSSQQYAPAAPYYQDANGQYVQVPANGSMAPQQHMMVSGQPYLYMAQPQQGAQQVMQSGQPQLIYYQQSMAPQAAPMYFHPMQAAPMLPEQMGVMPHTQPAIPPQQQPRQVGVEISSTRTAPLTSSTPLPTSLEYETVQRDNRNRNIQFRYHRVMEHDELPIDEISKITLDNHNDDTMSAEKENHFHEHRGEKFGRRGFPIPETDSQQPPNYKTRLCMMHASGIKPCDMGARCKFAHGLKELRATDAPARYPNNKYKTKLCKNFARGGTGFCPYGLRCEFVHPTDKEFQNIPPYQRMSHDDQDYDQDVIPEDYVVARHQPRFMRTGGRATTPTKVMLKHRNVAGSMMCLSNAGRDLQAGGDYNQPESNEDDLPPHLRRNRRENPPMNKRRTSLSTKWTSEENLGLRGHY

[11] = target: T5, RNA-binding protein pos-1 (Caenorhabditis elegans, UniProt G5EF15); test: disruptors of C. elegans POS-1 RNA interaction – biochemical, fluorescence polarization, dose response (AID 1964);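 also: purified POS-1 fused to maltose binding protein made in E. coli; potency of compounds blocking POS-1 binding to fluorescent RNA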
T5 sequence (G5EF15 whole entry): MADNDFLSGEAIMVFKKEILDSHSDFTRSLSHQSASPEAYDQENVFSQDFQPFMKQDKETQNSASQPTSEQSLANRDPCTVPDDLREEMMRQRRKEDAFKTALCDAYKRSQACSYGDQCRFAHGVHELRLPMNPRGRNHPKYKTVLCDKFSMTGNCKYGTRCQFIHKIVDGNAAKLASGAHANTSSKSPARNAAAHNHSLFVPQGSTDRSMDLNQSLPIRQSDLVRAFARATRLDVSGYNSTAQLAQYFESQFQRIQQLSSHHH

[12] = target: T6, Histone-lysine N-methyltransferase NSD2 (Homo sapiens, UniProt O96028); format: biochemical
T6 sequence (O96028 whole entry): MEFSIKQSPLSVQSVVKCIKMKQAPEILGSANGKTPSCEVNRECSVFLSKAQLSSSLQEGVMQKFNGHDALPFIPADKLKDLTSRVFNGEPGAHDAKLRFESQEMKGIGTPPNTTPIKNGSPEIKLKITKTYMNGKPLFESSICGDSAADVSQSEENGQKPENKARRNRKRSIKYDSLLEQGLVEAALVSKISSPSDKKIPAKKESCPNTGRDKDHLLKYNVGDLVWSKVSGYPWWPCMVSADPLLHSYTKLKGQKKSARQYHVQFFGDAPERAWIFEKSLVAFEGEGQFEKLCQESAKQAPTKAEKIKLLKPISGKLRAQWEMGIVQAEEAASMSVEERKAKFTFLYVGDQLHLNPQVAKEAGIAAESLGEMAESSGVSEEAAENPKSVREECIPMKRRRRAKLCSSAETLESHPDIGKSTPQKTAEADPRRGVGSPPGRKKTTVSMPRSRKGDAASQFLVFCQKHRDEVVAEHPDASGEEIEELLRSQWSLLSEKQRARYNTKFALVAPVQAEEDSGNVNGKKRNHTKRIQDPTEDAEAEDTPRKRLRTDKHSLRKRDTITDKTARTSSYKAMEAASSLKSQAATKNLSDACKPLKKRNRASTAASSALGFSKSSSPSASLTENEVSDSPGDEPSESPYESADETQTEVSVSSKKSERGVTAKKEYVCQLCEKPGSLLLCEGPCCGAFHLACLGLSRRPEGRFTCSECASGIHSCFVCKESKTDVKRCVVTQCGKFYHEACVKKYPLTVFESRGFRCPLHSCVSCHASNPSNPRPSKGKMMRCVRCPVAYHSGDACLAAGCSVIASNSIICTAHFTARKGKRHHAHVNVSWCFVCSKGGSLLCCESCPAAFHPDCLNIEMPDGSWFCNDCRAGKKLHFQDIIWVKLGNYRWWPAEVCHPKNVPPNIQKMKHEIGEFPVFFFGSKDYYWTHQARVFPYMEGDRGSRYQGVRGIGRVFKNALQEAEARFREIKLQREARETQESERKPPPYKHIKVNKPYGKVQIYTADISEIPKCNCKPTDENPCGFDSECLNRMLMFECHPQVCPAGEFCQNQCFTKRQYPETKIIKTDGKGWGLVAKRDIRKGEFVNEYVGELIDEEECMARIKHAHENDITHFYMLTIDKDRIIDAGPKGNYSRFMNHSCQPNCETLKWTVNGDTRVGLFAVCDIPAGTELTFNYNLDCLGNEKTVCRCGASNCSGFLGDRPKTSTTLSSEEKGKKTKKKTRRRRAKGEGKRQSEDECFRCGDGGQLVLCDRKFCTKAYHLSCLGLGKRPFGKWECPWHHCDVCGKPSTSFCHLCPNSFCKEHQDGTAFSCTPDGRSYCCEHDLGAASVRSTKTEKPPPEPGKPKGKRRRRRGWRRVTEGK

[13] = tested on: BJ; test: cells; format: functional, cell-based; conditions: Homo sapiens
[14] = DRD fibroblast viability loss – cell-based, non-viral oncogenic, luminescence, dose response (AID 1934); format: functional; conditions: Homo sapiens
[15] = tested on: BJ; test: BJ-TERT-LT-ST fibroblast viability loss – cell-based, RAS-independent, luminescence, dose response (AID 1935); format: functional; conditions: Homo sapiens;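 also: BJ fibroblasts immortalized with TERT plus LT and ST oncogenes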
[16] = blockade of melanocortin 4 receptor signaling – cell-based, plate reader, cherry pick, counter-screen for LGR2 antagonist project, dose response (AID 743444); format: functional;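 also: transfected HEK 293 cells stimulated with alpha-MSH peptide; potency of inhibitors of the alpha-MSH evoked signal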
[17] = A549 cell cytotoxicity, dose response, cytotoxicity control, plate reader, cherry-pick, antagonist series (AID 743412); format: functional, cell-based
[18] = toxicity toward HepG2 liver cells – cell-based, plate reader, cherry-pick, antagonist series, cytotoxicity control, dose response (AID 743416); format: functional
[19] = blockers of bursicon-stimulated LGR2 cAMP reporter – cell-based, HEK293, CRE-luciferase reporter, cherry pick, set 2, dose response (AID 743343); format: functional;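 also: transfected cells were stimulated with diluted bursicon conditioned medium after compound addition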
[20] = tested on: BJ; test: BJ-TERT fibroblast viability loss – cell-based, RAS-independent, luminescence, dose response (AID 1933); format: functional; conditions: Homo sapiens
[21] = viability loss in HEK293 cells – cell-based, plate reader, cherry-picked samples, cytotoxicity control, dose response (AID 743446); format: functional
[22] = target: Estrogen receptor beta (Homo sapiens, UniProt Q92731); test: blockers of SRC-3 recruitment to ERβ – biochemical, ELISA, streptavidin-HRP readout, orthogonal assay, confirmation (AID 1060)
Estrogen receptor beta, sequence (Q92731 whole entry): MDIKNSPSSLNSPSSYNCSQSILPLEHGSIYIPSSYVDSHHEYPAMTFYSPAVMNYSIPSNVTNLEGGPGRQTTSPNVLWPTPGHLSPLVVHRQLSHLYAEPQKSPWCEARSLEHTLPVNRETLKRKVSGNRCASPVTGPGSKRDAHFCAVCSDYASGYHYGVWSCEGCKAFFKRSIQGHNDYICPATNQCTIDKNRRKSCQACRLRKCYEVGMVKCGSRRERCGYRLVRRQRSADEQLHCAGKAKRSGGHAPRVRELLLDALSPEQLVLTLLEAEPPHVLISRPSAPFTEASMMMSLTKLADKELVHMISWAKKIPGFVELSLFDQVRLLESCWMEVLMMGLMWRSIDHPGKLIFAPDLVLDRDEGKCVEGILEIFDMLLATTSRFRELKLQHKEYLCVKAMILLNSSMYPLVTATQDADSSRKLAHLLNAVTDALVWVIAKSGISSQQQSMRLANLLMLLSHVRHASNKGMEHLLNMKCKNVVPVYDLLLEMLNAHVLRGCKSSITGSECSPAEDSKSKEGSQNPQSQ

[23] = cells; format: functional, cell-based
[24] = cells; format: functional, cell-based; remark: listed apart in the source
[25] = viability loss in HepG2 hepatoma cells – cell-based, ATP luminescence, cherry-pick, activator set 2, cytotoxicity control, dose response (AID 1053143); format: functional
[26] = target: T7, Heat shock factor protein 1 (Mus musculus, UniProt P38532); test: decrease of HSF1-responsive luciferase luminescence – cell-based, NIH3T3, dose retest, confirmation (AID 2382); format: functional;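 also: NIH3T3 fibroblasts with HSF1-driven luciferase reporter stressed by proteasome inhibitor MG132; luminescence from HSF1-driven luciferase expression after 8 hours of MG132 stress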
T7 sequence (P38532 whole entry): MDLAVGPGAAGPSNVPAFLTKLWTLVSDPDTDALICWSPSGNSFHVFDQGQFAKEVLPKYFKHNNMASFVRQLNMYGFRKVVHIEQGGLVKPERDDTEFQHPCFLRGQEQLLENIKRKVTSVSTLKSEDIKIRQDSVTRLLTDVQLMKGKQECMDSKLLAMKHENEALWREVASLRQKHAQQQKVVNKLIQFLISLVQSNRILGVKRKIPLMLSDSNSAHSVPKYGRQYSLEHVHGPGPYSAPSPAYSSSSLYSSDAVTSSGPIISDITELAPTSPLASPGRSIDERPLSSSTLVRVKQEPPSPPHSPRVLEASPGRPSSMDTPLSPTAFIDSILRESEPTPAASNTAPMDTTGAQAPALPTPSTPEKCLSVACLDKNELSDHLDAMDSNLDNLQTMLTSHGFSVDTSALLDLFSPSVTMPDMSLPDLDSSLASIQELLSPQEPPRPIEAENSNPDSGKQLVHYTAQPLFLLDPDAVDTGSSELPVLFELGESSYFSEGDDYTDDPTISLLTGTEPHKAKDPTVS

SMILES: Clc1ccc(-n2nnc(-c3cccnc3Cl)n2)cc1Cl
- IC50 [1]: > 100 µM (not active)
- IC50 [2]: > 100 µM (not active)

SMILES: O=C(NCc1ccc(Cl)cc1)c1ccc2[nH]cnc2c1
- IC50 [3]: > 100 µM (inactive)
- IC50 [4]: > 100 µM (not active)

SMILES: O=C1C(Cl)=C(N2CCN(CCOCCO)CC2)C(=O)N1c1ccc([N+](=O)[O-])cc1
- IC50 [1]: 3.51 µM (active)
- IC50 [2]: 2.59 µM (active)
- IC50 [5]: > 100 µM (not active)

SMILES: O=C(Nc1cccc(NS(=O)(=O)c2ccc(S(=O)(=O)NC3CC3)cc2)c1)c1ccccn1
- EC50 [6]: > 79.4 µM (not active)
- EC50 [7]: > 79.4 µM (not active)
- EC50 [8]: > 79.4 µM (not active)

SMILES: COc1cc2c3c(c1OC)C1(C=CC(=O)C=C1)CC3N(C(=O)CCC(=O)O)CC2 (stereo not drawn)
- IC50 [9]: > 100 µM (active)

SMILES: O=C(O)c1cccc(-n2cccc2/C=C\[N+](=O)[O-])c1
- EC50 [10]: 40.8 µM (active)
- EC50 [11]: 83.7 µM (active)
- AC50 [12]: > 20 µM (inactive)

SMILES: CN(C)C(=O)Oc1ccc(OCc2nc3ccccc3[nH]2)cc1
- EC50 [13]: 11.2 µM (inconclusive)
- EC50 [14]: 8.55 µM (inconclusive)
- EC50 [15]: 22.3 µM (active)
- AC50 [16]: 6.14 µM (active)
- AC50 [17]: 11.8 µM (active)
- AC50 [18]: 13.8 µM (active)
- AC50 [19]: 6.62 µM (active)
- EC50 [20]: 8.38 µM (inconclusive)
- AC50 [21]: 10.2 µM (active)

SMILES: CC(C)CC1(C(=O)O)NC(c2ccccc2O)C2C(=O)N(C(C)C)C(=O)C21 (stereo not drawn)
- IC50 [3]: > 100 µM (inactive)
- IC50 [4]: > 100 µM (not active)

SMILES: COCOC1CCC2C3CCC4=CC(=O)CCC4=C3C=CC12C (stereo not drawn)
- IC50 [9]: > 100 µM (active)

SMILES: O=C1C(Cl)=C(Cl)C(=O)N1c1c(Cl)cccc1Cl
- IC50 [1]: 30 µM (active)
- IC50 [2]: > 100 µM (not active)
- IC50 [5]: > 100 µM (not active)

SMILES: COc1ccc(/N=C2/S/C(=C\c3ccc(C)o3)C(=O)N2CC(C)C)cc1
- IC50 [9]: > 100 µM (active)

SMILES: Cc1ccc(N(CC(=O)N/N=C/c2cccc(Br)c2)S(C)(=O)=O)cc1
- IC50 [3]: > 100 µM (inactive)
- IC50 [4]: > 100 µM (not active)

SMILES: O=C(Nc1ccccc1)c1cc(C2CCCN(C(=O)C3CC3)C2)on1 (stereo not drawn)
- AC50 [16]: 4.34 µM (active)
- AC50 [17]: 49.2 µM (active)
- AC50 [18]: > 52 µM (inactive)
- AC50 [19]: 7.27 µM (active)
- AC50 [21]: 46.4 µM (active)

SMILES: COC(=O)c1ccc(NC(=O)CSc2nc(C)cc(=O)[nH]2)cc1
- IC50 [22]: > 50 µM (not active)

SMILES: COc1ccc(/C=N/CC2OCCc3ccccc32)cc1OC (stereo not drawn)
- IC50 [23]: > 29.9 µM (inactive)
- EC50 [24]: > 29.9 µM (inactive)

SMILES: Cc1cc(NC(=O)c2ccc(OCC3CCCO3)cc2)ccc1Br (stereo not drawn)
- AC50 [25]: 26 µM (active)

SMILES: N#CC1(C#N)COC23CCCCC2C1(C#N)C(=N)O3 (stereo not drawn)
- IC50 [3]: > 100 µM (inactive)
- EC50 [26]: > 195 µM (not active)
- IC50 [4]: > 100 µM (not active)

SMILES: O=C1C(Cl)=C(N2CCN(c3ccc(Cl)cc3)CC2)C(=O)N1c1ccc(Cl)c(Cl)c1
- IC50 [1]: > 100 µM (not active)
- IC50 [2]: > 100 µM (not active)
- IC50 [5]: > 100 µM (not active)

SMILES: Cc1csc(NC(=O)c2sccc2C)n1
- AC50 [25]: 26 µM (active)

From ChEMBL document CHEMBL1201862, “PubChem BioAssay data set” (2004)
